Read-outs that look alike come from different tables or passages of the source.
Experiments:
full-length human PLD1 = full-length human PLD1 (Homo sapiens (Human), UniProt Q13393); experiment: Evaluation of human PLD1 enzyme inhibitory activity (Amplex Red / choline oxidase fluorescence); assay type: biochemical
Summary of the method: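 N-terminally FLAG-tagged full-length human PLD1 (1-1036), expressed in Expi293F and FLAG-purified, incubated with compound (5% DMSO final) and 1,2-diheptanoyl-sn-glycero-3-phosphocholine for 60 min at room temperature in HEPES pH 7.5 buffer. Released choline detected by Amplex Red/choline oxidase/HRP fluorescence.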

full-length human PLD2 = full-length human PLD2 (Homo sapiens (Human), UniProt O14939); experiment: Evaluation of human PLD2 enzyme inhibitory activity (Amplex Red / choline oxidase fluorescence); assay type: biochemical
Sequence of full-length human PLD2 (O14939 whole entry): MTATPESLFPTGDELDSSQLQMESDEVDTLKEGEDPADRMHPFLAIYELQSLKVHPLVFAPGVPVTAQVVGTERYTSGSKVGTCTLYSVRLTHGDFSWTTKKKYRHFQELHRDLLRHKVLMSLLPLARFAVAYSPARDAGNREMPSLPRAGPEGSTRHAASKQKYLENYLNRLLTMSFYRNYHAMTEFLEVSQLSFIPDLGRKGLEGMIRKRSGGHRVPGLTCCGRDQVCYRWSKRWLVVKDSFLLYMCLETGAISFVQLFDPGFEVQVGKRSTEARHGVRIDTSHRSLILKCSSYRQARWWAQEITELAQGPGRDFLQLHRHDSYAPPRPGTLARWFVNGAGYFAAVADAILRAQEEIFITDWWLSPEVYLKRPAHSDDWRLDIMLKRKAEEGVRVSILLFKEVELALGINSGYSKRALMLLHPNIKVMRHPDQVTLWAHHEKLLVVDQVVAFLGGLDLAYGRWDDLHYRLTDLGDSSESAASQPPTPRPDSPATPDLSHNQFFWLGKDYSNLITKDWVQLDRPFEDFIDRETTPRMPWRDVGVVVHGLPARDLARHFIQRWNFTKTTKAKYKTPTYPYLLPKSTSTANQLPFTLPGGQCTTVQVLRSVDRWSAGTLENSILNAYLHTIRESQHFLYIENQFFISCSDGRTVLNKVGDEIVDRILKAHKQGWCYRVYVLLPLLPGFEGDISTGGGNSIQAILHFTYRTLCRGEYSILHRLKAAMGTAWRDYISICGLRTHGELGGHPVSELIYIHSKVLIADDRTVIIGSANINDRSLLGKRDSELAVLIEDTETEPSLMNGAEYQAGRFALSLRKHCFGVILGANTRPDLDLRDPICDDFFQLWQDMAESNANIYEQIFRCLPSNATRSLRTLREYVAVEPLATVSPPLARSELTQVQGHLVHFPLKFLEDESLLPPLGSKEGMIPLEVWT
Summary of the method: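 Enzyme was N-terminal FLAG-tagged full-length human PLD2 (1-933), expressed in Expi293F cells and anti-FLAG purified. Compound (5% DMSO final) was incubated with enzyme (6 nmol/L solution) and 1,2-diheptanoyl-PC (6 mmol/L solution) in HEPES pH 7.5, KCl, EGTA, MgCl2, NP-40, BSA buffer for 60 min at room temperature. Choline was detected with Amplex Red/choline oxidase/HRP.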

[1] = full-length human PLD1 enzyme, read-out: PLD1 IC50
[2] = full-length human PLD2 enzyme, read-out: PLD2 IC50

Sequence of full-length human PLD1 (Q13393 other isoform, or with tags, fused parts or gaps): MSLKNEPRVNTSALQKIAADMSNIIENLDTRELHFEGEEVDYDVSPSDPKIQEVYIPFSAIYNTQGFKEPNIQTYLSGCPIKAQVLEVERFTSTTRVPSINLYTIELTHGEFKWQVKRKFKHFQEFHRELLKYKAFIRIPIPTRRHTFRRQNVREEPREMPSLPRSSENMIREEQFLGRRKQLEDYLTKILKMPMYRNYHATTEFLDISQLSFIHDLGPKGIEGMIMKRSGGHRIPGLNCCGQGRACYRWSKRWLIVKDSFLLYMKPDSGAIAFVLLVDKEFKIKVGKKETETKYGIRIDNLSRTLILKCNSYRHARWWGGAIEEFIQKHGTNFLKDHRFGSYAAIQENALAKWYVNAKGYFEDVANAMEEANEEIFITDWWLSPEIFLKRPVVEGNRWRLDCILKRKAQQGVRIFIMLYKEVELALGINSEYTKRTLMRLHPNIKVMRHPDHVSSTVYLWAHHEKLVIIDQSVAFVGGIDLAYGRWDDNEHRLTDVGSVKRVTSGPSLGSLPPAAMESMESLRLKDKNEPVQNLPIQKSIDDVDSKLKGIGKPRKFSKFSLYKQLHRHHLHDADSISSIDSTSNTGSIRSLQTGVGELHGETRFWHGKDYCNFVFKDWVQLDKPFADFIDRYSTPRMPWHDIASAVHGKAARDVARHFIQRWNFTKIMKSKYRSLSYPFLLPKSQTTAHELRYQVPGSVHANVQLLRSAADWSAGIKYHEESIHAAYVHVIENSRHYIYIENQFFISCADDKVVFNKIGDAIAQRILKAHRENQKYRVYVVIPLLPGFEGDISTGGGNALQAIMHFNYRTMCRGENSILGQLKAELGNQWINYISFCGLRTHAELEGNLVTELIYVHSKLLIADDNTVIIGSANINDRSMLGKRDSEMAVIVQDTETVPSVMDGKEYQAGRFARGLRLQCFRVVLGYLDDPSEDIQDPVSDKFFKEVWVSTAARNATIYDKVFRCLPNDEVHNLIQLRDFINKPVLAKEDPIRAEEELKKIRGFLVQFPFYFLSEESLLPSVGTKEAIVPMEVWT

SMILES	IC50 (full-length human PLD1; [1])	IC50 (full-length human PLD2; [2])	IC50 (full-length human PLD1; column 1 of continuation tables 2-12 to 2-14, read-out: human PLD1 enzyme inhibitory activity IC50)	IC50 (full-length human PLD2; column 2 of continuation tables 2-12 to 2-14, read-out: human PLD2 enzyme inhibitory activity IC50)
CC(=O)N[C@@H](C)C[C@H]1CC[C@]2(CC1)OC(=O)NN=C2c1ccc(F)cc1Br [Example 11]	228 nM	394 nM	–	–
C[C@@H](C[C@H]1CC[C@]2(CC1)OC(=O)NN=C2c1ccc(F)cc1Br)NC(=O)C1(O)COC1 [Example 123]	202 nM	502 nM	–	–
CNC(=O)C(=O)N[C@@H](C)C[C@H]1CC[C@]2(CC1)OC(=O)NN=C2c1ccc(F)cc1I [Example 139]	< 10 nM	< 10 nM	–	–
C[C@@H](C[C@]1(C#N)CC[C@@]2(CC1)OC(=O)NN=C2c1cc(C#N)ccc1Br)NC(=O)c1cc(Cl)no1 [Example 2-068]	< 10 nM	< 10 nM	–	–
CNC(=O)C(=O)N[C@@H](C)C[C@H]1CC[C@]2(CC1)OC(=O)NN=C2c1cnc(N2CCCC2)cc1C [Example 165]	19 nM	< 10 nM	–	–
CNC(=O)C(=O)N[C@@H](C)CN1CCC2(CC1)OC(=O)NN=C2c1cc(C#N)ccc1Br [Example 300]	38 nM	< 10 nM	–	–
CNC(=O)C(=O)N[C@@H](C)C[C@H]1CC[C@]2(CC1)OC(=O)NN=C2c1ccccc1SC [Example 74]	< 10 nM	< 10 nM	–	–
CNC(=O)C(=O)N[C@@H](C)C[C@]1(O)CC[C@]2(CC1)OC(=O)NN=C2c1ccc(F)cc1Br [Example 319]	2090 nM	744 nM	–	–
CNC(=O)C(=O)N[C@@H](C)C[C@H]1CC[C@]2(CC1)OC(=O)NN=C2c1cnc(C(C)=O)cc1C [Example 193]	55 nM	46 nM	–	–
C[C@@H](C[C@H]1CC[C@]2(CC1)OC(=O)NN=C2c1cc(C#N)ccc1Br)NC(=O)c1cn(C)cn1 [Example 2-071]	13 nM	< 10 nM	–	–
CNC(=O)C(=O)N[C@@H](C)C[C@H]1CC[C@]2(CC1)OC(=O)NN=C2c1cc(C(=O)N2CC(F)(F)C2)ccc1Br [Example 2-057]	18 nM	< 10 nM	–	–
C[C@@H](C[C@H]1CC[C@]2(CC1)OC(=O)NN=C2c1ccc(OC(F)(F)F)cc1Br)NC(=O)NC1CC1 [Example 195]	39 nM	67 nM	–	–
CNC(=O)C(=O)N[C@@H](C)C[C@H]1CC[C@]2(CC1)OC(=O)NN=C2c1cnc(N2CC3(COC3)C2)cc1C [Example 191]	38 nM	< 10 nM	–	–
CNC(=O)C(=O)N[C@@H](C)C[C@H]1CC[C@]2(CC1)OC(=O)NN=C2c1cc(N2CCOCC2)ccc1C [Example 256]	27 nM	< 10 nM	–	–
CNC(=O)C(=O)N[C@@H](C)C[C@H]1CC[C@]2(CC1)OC(=O)NN=C2c1cnc(N2CC3CCC(C2)O3)cc1Cl [Example 246]	15 nM	< 10 nM	–	–
CNC(=O)C(=O)N[C@@H](C)C[C@]1(C#N)CC[C@@]2(CC1)OC(=O)NN=C2c1cc(OC)ncc1Br [Example 2-077]	15 nM	< 10 nM	–	–
CNC(=O)C(=O)N[C@@H](C)[C@@H](C)N1CCC2(CC1)OC(=O)NN=C2c1ccc(F)cc1Br [Example 291]	150 nM	234 nM	–	–
Cc1cc(N2CCOCC2)ccc1C1=NNC(=O)O[C@]12CC[C@@H](C[C@H](C)NC(=O)NC1CC1)CC2 [Example 229]	197 nM	310 nM	–	–
CNC(=O)C(=O)N[C@@H](C)C[C@H]1CC[C@]2(CC1)OC(=O)NN=C2c1cccc(C#N)c1Br [Example 315]	25 nM	24 nM	–	–
Cc1cc(C(=O)N[C@@H](C)C[C@H]2CC[C@]3(CC2)OC(=O)NN=C3c2cccnc2)[nH]n1 [Example 16]	926 nM	968 nM	–	–
C[C@@H](C[C@H]1CC[C@]2(CC1)OC(=O)NN=C2c1ccc(F)cc1Br)NC(=O)c1cc2ccccc2o1 [Example 19]	17 nM	10 nM	–	–
CNC(=O)C(=O)N[C@@H](C)C[C@]1(C#N)CC[C@@]2(CC1)OC(=O)NN=C2c1ccc(OC(F)F)cc1Br [Example 2-067]	15 nM	< 10 nM	–	–
CNC(=O)C(=O)N[C@@H](C)CN1CCC2(CC1)OC(=O)NN=C2c1ccc(C#N)cc1Cl [Example 168]	56 nM	35 nM	–	–
CNC(=O)C(=O)N[C@@H](C)CN1CCC2(CC1)OC(=O)NN=C2c1cc(C(=O)NC)ccc1Br [Example 2-037]	43 nM	13 nM	–	–
CNC(=O)C(=O)N[C@@H](C)C[C@H]1CC[C@]2(CC1)OC(=O)NN=C2c1ccc(OCC(F)F)cc1Br [Example 85]	12 nM	< 10 nM	–	–
[2H]C([2H])([2H])NC(=O)C(=O)N[C@@H](C)C[C@]1(OC)CC[C@@]2(CC1)OC(=O)NN=C2c1ccc(C#N)cc1Br [Example 2-130]	–	–	32 nM	< 10 nM

SMILES	IC50 (full-length human PLD1; [1])	IC50 (full-length human PLD2; [2])	IC50 (full-length human PLD1; column 1 of continuation tables 2-12 to 2-14, read-out: human PLD1 enzyme inhibitory activity IC50)	IC50 (full-length human PLD2; column 2 of continuation tables 2-12 to 2-14, read-out: human PLD2 enzyme inhibitory activity IC50)
C[C@@H](CN1CCC2(CC1)OC(=O)NN=C2c1ccc(C(N)=O)cc1Br)NC(=O)c1cnn(C)c1 [Example 337]	74 nM	28 nM	–	–
CNC(=O)C(=O)N[C@@H](C)C[C@H]1CC[C@]2(CC1)OC(=O)NN=C2c1ccc(OC)cc1Br [Example 58]	14 nM	< 10 nM	–	–
CNC(=O)C(=O)N[C@@H](C)C[C@H]1CC[C@]2(CC1)OC(=O)NN=C2c1cc(C(=O)N2CCC(F)(F)C2)ccc1Br [Example 2-056]	17 nM	< 10 nM	–	–
CNC(=O)C(=O)N[C@@H](C)C[C@H]1CC[C@]2(CC1)OC(=O)NN=C2c1cnc(N2CCC(F)(F)CC2)cc1Cl [Example 274]	17 nM	< 10 nM	–	–
C[C@@H](C[C@H]1CC[C@]2(CC1)OC(=O)NN=C2c1ccc(F)cc1Br)NC(=O)c1cc(Cl)no1 [Example 37]	< 10 nM	< 10 nM	–	–
CNC(=O)C(=O)N[C@@H](C)C[C@H]1CC[C@]2(CC1)OC(=O)NN=C2c1cnc(C)cc1Cl [Example 230, N^1—((S)-1-(cis-5-(4-chloro-6-methylpyridin-3-yl)-2-oxo-1-oxa-3,4-diazaspiro[5.5]undec-4-en-9-yl)propan-2-yl)-N^2-methyloxamide]	21 nM	< 10 nM	–	–
CNC(=O)C(=O)N[C@@H](C)C[C@H]1CC[C@]2(CC1)OC(=O)NN=C2c1ccc(F)cc1 [Example 6]	69 nM	120 nM	–	–
CNC(=O)C(=O)N[C@@H](C)C(C#N)N1CCC2(CC1)OC(=O)NN=C2c1ccc(F)cc1Br (mixture of isomers) [Example 2-010]	1010 nM	1260 nM	–	–
CNC(=O)C(=O)N[C@@H](C)C[C@H]1CC[C@]2(CC1)OC(=O)NN=C2c1cccc(OC(F)F)c1Br [Example 306]	< 10 nM	< 10 nM	–	–
COc1cc(C)c(C2=NNC(=O)O[C@]23CC[C@@H](C[C@H](C)NC(=O)N2CCn4nncc4C2)CC3)cn1 [Example 235]	35 nM	13 nM	–	–
CC(=O)Nc1cccc2[nH]c(C(=O)N[C@@H](C)C[C@H]3CC[C@]4(CC3)OC(=O)NN=C4c3ccc(F)cc3)cc12 [Example 142]	22 nM	< 10 nM	–	–
Cc1cc(C(=O)NC[C@H](C)N2CCC3(CC2)OC(=O)NN=C3c2ccc(C#N)cc2Br)[nH]n1 [Example 335]	126 nM	< 10 nM	–	–
C[C@@H](C[C@H]1CC[C@]2(CC1)OC(=O)NN=C2c1cccnc1)NC(=O)c1cc2cc(F)ccc2[nH]1 [Example 15]	25 nM	< 10 nM	–	–
C[C@@H](C[C@H]1CC[C@]2(CC1)OC(=O)NN=C2c1ccc(F)cc1Br)NC(=O)N1CCOC2(CC2)C1 [Example 283]	43 nM	48 nM	–	–
Cc1cc(C(=O)N[C@@H](C)C[C@H]2CC[C@]3(CC2)OC(=O)NN=C3c2ccc(F)cc2)[nH]n1 [Example 5]	164 nM	171 nM	–	–
CNC(=O)C(=O)N[C@@H](C)C[C@H]1CC[C@]2(CC1)OC(=O)NN=C2c1cc(C(=O)NC(C)(C)C)ccc1Br [Example 299]	25 nM	< 10 nM	–	–
C[C@@H](C[C@]1(C#N)CC[C@@]2(CC1)OC(=O)NN=C2c1cc(OC(F)F)ccc1Br)NC(=O)c1cn(C)cn1 [Example 2-078]	< 10 nM	< 10 nM	–	–
Cc1cc(Cl)c(C2=NNC(=O)O[C@]23CC[C@@H](C[C@H](C)NC(=O)N2CCn4nccc4C2)CC3)cn1 [Example 276]	21 nM	< 10 nM	–	–
Cc1cc(C(=O)N[C@@H](C)C[C@H]2CC[C@]3(CC2)OC(=O)NN=C3c2cnc(N3CCC(F)(F)C3)cc2C)[nH]n1 [Example 238]	12 nM	< 10 nM	–	–
CNC(=O)C(=O)N[C@@H](C)C[C@H]1CC[C@]2(CC1)OC(=O)NN=C2c1cccnc1 [Example 17]	816 nM	1040 nM	–	–
Cc1cc(F)ccc1C1=NNC(=O)O[C@]12CC[C@@H](C[C@H](C)NC(=O)N1CCCC1)CC2 [Example 136]	155 nM	170 nM	–	–
CNC(=O)C(=O)N[C@@H](C)C[C@H]1CC[C@]2(CC1)OC(=O)NN=C2c1ccccc1S(C)(=O)=O [Example 75]	1630 nM	1990 nM	–	–
Cc1cc(C(=O)N[C@@H](C)C[C@H]2CC[C@]3(CC2)OC(=O)NN=C3c2cc(C#N)ccc2Br)[nH]n1 [Example 272]	15 nM	< 10 nM	–	–
COc1cc(C)c(C2=NNC(=O)O[C@]23CC[C@@H](C[C@H](C)NC(=O)N2CCn4c(nnc4C(F)(F)F)C2)CC3)cn1 [Example 259]	1450 nM	2500 nM	–	–
C[C@@H](CN1CCC2(CC1)OC(=O)NN=C2c1cc(C#N)ccc1Br)NC(=O)C[C@@H](O)C(F)(F)F [Example 2-002]	1250 nM	1860 nM	–	–
Cc1cc(C(=O)N[C@@H](C)C[C@H]2CC[C@]3(CC2)OC(=O)NN=C3c2cnc(Cl)cc2N2CCC(F)(F)C2)[nH]n1 [Example 223]	396 nM	246 nM	–	–

— US20240101572A1, “DIHYDROOXADIAZINONE COMPOUND AND PHARMACEUTICAL USE THEREOF” (Japan Tobacco Inc., priority 2022, published 2024)
